# Molecular target: T1, ΔF508-CFTR (Homo sapiens, UniProt P13569, DEL508-508)
# T1 construct: Primary lung epithelial cells homozygous for the Cystic Fibrosis-causing ΔF508 mutation; endogenous in cells; host or cells: primary human lung (bronchial) epithelial cells homozygous for ΔF508, differentiated at air-liquid interface
# Experiment: hBE equivalent current (Ieq) assay
# Format: cell-based
# Conditions: compound at 10 uM together with VX-809 at 1 uM, relative to VX-809 (1 uM); AUC of equivalent chloride current; primary hBE homozygous ΔF508; 24 h treatment
# Experimental: Primary lung epithelial cells homozygous for the Cystic Fibrosis-causing ΔF508 mutation were differentiated for a minimum of 4 weeks in an air-liquid interface on Costar 24 well HTS filter plates prior to the equivalent current (Ieq) measurements. Cells were apically mucus-washed for 30 minutes 24 h prior to treatment with compounds. The basolateral media was removed and replaced with media containing the compound of interest diluted to its final concentration from DMSO stocks. Treated cells were incubated at 37° C. and 5% CO2 for 24 hours. At the end of the treatment period, the media was changed to the Ieq experimental solution for 30 minutes before the experiment and plates are maintained in a CO2-free incubator during this period. The plates containing the cells were then placed in pre-warmed heating blocks at 36° C.±0.5 for 15 minutes before measurements are taken. The transepithelial voltage (VT) and conductance (GT) were measured using a custom 24 channel current clamp (TECC-24) with 24 well electrode manifold. The Ieq assay measurements were made following additions with standardized time periods: • 1. The baseline VT and GT values were measured for approximately 20 minutes. • 2. Benzamil was added to block ENaC for 15 minutes. • 3. Forskolin plus VX-770 were added to maximally activate ΔF508-CFTR for 27 minutes. • 4. Bumetanide was added to inhibit the NaK2Cl cotransporter and shut-off secretion of chloride.
# The activity data captured was the area under the curve (AUC) for the traces of the equivalent chloride current. The AUC was collected from the time of the forskolin/VX-770 addition until the inhibition by bumetanide addition. Correction in response to compound treatment was scored as the increase in the AUC for compound-treated samples over that of vehicle-treated samples. The results are shown below in Table 2 (++indicates activity ≧25% run at 10 uM of VX-809 at 1 uM; +indicates activity 10 to <25% run at 10 uM of VX-809 at 1 uM; ** indicates activity ≧200% of VX-809 (1 uM) with compound at 10 uM and VX-809 at 1 uM; * indicates activity 100-200% of VX-809 (1 uM) with compound at 10 uM and VX-809 at 1 uM)
# T1 sequence (P13569 with tags, fused parts or gaps DEL508-508): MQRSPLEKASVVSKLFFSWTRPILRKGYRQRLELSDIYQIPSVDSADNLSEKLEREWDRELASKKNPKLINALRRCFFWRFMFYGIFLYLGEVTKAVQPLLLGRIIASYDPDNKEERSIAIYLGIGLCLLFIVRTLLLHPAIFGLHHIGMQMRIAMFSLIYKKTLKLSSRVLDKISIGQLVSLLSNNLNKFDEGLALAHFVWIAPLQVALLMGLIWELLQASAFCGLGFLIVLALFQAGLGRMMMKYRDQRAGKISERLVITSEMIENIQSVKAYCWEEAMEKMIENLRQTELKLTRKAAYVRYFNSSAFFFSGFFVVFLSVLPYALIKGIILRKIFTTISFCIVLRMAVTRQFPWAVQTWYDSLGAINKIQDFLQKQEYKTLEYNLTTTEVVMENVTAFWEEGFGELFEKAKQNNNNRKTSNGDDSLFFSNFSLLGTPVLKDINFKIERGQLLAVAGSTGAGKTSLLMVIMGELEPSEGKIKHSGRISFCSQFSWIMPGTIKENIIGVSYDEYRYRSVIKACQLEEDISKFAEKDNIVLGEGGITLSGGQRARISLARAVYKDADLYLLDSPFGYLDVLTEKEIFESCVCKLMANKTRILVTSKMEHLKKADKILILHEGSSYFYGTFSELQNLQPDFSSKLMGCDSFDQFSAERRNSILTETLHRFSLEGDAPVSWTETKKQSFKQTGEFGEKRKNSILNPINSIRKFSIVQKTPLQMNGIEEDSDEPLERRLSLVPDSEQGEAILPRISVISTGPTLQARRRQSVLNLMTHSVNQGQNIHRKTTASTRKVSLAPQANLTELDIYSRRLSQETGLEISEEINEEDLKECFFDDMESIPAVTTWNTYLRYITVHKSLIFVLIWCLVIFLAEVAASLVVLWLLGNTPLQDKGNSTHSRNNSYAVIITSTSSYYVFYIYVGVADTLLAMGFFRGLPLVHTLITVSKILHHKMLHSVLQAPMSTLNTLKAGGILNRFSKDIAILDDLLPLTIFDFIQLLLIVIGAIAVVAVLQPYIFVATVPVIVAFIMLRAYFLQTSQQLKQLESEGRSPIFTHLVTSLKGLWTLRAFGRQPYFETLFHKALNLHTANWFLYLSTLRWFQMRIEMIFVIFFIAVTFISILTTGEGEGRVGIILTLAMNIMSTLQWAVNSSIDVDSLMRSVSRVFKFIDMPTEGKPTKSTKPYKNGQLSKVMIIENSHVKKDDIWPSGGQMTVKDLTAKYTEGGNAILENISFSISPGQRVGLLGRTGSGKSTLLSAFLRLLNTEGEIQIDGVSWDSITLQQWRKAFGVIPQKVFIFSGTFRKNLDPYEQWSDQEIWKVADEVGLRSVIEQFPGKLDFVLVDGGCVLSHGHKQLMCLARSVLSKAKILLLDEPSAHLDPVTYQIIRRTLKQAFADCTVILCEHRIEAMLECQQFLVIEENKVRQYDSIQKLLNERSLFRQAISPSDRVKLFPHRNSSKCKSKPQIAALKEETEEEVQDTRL
row,SMILES,Ieq Activity
1,"CC(C)(O)c1nnc(CCNC(=O)c2cc(-c3ccccc3)on2)s1 [Compound A9, N-(2-(5-(2-hydroxypropan-2-yl)-1,3,4-thiadiazol-2-yl)ethyl)-5-phenylisoxazole-3-carboxamide]",** (** indicates activity ≧200% of VX-809 (1 uM) with compound at 10 uM and VX-809 at 1 uM)
2,"[N-]=[N+]=NCc1nnc(CCNC(=O)c2cc(-c3ccccc3)on2)s1 [Compound A7, N-(2-(5-(azidomethyl)-1,3,4-thiadiazol-2-yl)ethyl)-5-phenylisoxazole-3-carboxamide]",** (** indicates activity ≧200% of VX-809 (1 uM) with compound at 10 uM and VX-809 at 1 uM)
3,"COCc1nnc(CCNC(=O)c2cc(-c3ccccc3)on2)o1 [Compound A5, N-(2-(5-(methoxymethyl)-1,3,4-oxadiazol-2-yl)ethyl)-5-phenylisoxazole-3-carboxamide]",** (** indicates activity ≧200% of VX-809 (1 uM) with compound at 10 uM and VX-809 at 1 uM)
4,"O=C(NCCc1nnc(C(O)C(F)(F)F)s1)c1cc(-c2ccccc2)on1 (stereo not drawn) [Compound A23, 5-phenyl-N-(2-(5-(2,2,2-trifluoro-1-hydroxyethyl)-1,3,4-thiadiazol-2-yl)ethyl)isoxazole-3-carboxamide]",** (** indicates activity ≧200% of VX-809 (1 uM) with compound at 10 uM and VX-809 at 1 uM)
5,"CO[C@H](C)c1nnc(CCNC(=O)c2cc(-c3ccccc3)on2)s1 [Compound A25-b, (R)-N-(2-(5-(1-methoxyethyl)-1,3,4-thiadiazol-2-yl)ethyl)-5-phenylisoxazole-3-carboxamide]",** (** indicates activity ≧200% of VX-809 (1 uM) with compound at 10 uM and VX-809 at 1 uM)
6,"CO[C@@H](C)c1nnc(CCNC(=O)c2cc(-c3ccccc3)on2)s1 [Compound A25-a, (S)-N-(2-(5-(1-methoxyethyl)-1,3,4-thiadiazol-2-yl)ethyl)-5-phenylisoxazole-3-carboxamide]",** (** indicates activity ≧200% of VX-809 (1 uM) with compound at 10 uM and VX-809 at 1 uM)
7,"C[C@H](O)c1nnc(CCNC(=O)c2cc(-c3ccccc3)on2)o1 [Compound A18, (S)-N-(2-(5-(1-hydroxyethyl)-1,3,4-oxadiazol-2-yl)ethyl)-5-phenylisoxazole-3-carboxamide]",** (** indicates activity ≧200% of VX-809 (1 uM) with compound at 10 uM and VX-809 at 1 uM)
8,"Cc1nnc(CCCNC(=O)c2cc(-c3ccccc3)on2)s1 [Compound A6, N-(3-(5-methyl-1,3,4-thiadiazol-2-yl)propyl)-5-phenylisoxazole-3-carboxamide]",** (** indicates activity ≧200% of VX-809 (1 uM) with compound at 10 uM and VX-809 at 1 uM)
9,"C[C@@H](O)c1nnc(CCNC(=O)c2cc(-c3ccccc3)on2)s1 [Compound A13, (R)-N-(2-(5-(1-hydroxyethyl)-1,3,4-thiadiazol-2-yl)ethyl)-5-phenylisoxazole-3-carboxamide]",** (** indicates activity ≧200% of VX-809 (1 uM) with compound at 10 uM and VX-809 at 1 uM)
10,"O=C(NCCc1nnc(COC(F)(F)F)o1)c1cc(-c2ccccc2)on1 [Compound A15, 5-phenyl-N-(2-(5-((trifluoromethoxy)methyl)-1,3,4-oxadiazol-2-yl)ethyl)isoxazole-3-carboxamide]",* (* indicates activity 100-200% of VX-809 (1 uM) with compound at 10 uM and VX-809 at 1 uM)
11,"C[C@@H](O)c1nnc(CCNC(=O)c2cc(-c3ccccc3)on2)o1 [Compound A14, (R)-N-(2-(5-(1-hydroxyethyl)-1,3,4-oxadiazol-2-yl)ethyl)-5-phenylisoxazole-3-carboxamide]",* (* indicates activity 100-200% of VX-809 (1 uM) with compound at 10 uM and VX-809 at 1 uM)
12,"COC(C)c1nnc(CCNC(=O)c2cc(-c3ccccc3)on2)o1 (stereo in doubt) [Compound A24-b, (S)-N-(2-(5-(1-methoxyethyl)-1,3,4-oxadiazol-2-yl)ethyl)-5-phenylisoxazole-3-carboxamide]",* (* indicates activity 100-200% of VX-809 (1 uM) with compound at 10 uM and VX-809 at 1 uM)
13,"CC(C)(O)c1nnc(CCNC(=O)c2cc(-c3ccccc3)on2)o1 [Compound A10, N-(2-(5-(2-hydroxypropan-2-yl)-1,3,4-oxadiazol-2-yl)ethyl)-5-phenylisoxazole-3-carboxamide]",** (** indicates activity ≧200% of VX-809 (1 uM) with compound at 10 uM and VX-809 at 1 uM)
14,"CC(C)c1nnc(CCNC(=O)c2cc(-c3ccccc3)on2)o1 [Compound A8, N-(2-(5-isopropyl-1,3,4-oxadiazol-2-yl)ethyl)-5-phenylisoxazole-3-carboxamide]",** (** indicates activity ≧200% of VX-809 (1 uM) with compound at 10 uM and VX-809 at 1 uM)
15,"O=C(NCCc1nnc(CO)s1)c1noc(-c2ccccc2)c1F [Compound A11, 4-fluoro-N-(2-(5-(hydroxymethyl)-1,3,4-thiadiazol-2-yl)ethyl)-5-phenylisoxazole-3-carboxamide]",* (* indicates activity 100-200% of VX-809 (1 uM) with compound at 10 uM and VX-809 at 1 uM)
16,"COCc1nnc(CCNC(=O)c2cc(-c3ccccc3)on2)s1 [Compound A4, N-(2-(5-(methoxymethyl)-1,3,4-thiadiazol-2-yl)ethyl)-5-phenylisoxazole-3-carboxamide]",** (** indicates activity ≧200% of VX-809 (1 uM) with compound at 10 uM and VX-809 at 1 uM)
17,"O=C(NCCc1nnc(CO)s1)c1noc(-c2ccc(F)cc2)c1F [Compound A12, 4-fluoro-5-(4-fluorophenyl)-N-(2-(5-(hydroxymethyl)-1,3,4-thiadiazol-2-yl)ethyl)isoxazole-3-carboxamide]",* (* indicates activity 100-200% of VX-809 (1 uM) with compound at 10 uM and VX-809 at 1 uM)
18,"O=C(NCCc1nnc(CBr)s1)c1cc(-c2ccccc2)on1 [Compound A3, N-(2-(5-(bromomethyl)-1,3,4-thiadiazol-2-yl)ethyl)-5-phenylisoxazole-3-carboxamide]",** (** indicates activity ≧200% of VX-809 (1 uM) with compound at 10 uM and VX-809 at 1 uM)
19,"O=C(NCCc1nnc(COC(F)(F)F)s1)c1cc(-c2ccccc2)on1 [Compound A16, 5-phenyl-N-(2-(5-((trifluoromethoxy)methyl)-1,3,4-thiadiazol-2-yl)ethyl)isoxazole-3-carboxamide]",* (* indicates activity 100-200% of VX-809 (1 uM) with compound at 10 uM and VX-809 at 1 uM)
20,"COC(C)c1nnc(CCNC(=O)c2cc(-c3ccccc3)on2)o1 (stereo in doubt) [Compound A24-a, (R)-N-(2-(5-(1-methoxyethyl)-1,3,4-oxadiazol-2-yl)ethyl)-5-phenylisoxazole-3-carboxamide]",* (* indicates activity 100-200% of VX-809 (1 uM) with compound at 10 uM and VX-809 at 1 uM)

# Molecular target: T1, ΔF508-CFTR
# Experiment: Ussing measurements
# Format: cell-based
# Conditions: compound at 10 uM together with VX-809 at 1 uM, relative to VX-809 (1 uM); CFTRinh-172 inhibitable short-circuit current; primary hBE homozygous ΔF508; 24 h treatment
# Experimental: As discussed above, Ussing measurements can be used to measure CFTR activity. In this method, primary lung epithelial cells (hBEs) homozygous for the Cystic Fibrosis-causing ΔF508 mutation are differentiated for a minimum of 4 weeks in an air-liquid interface on SnapWell filter plates prior to the Ussing measurements. Cells are apically mucus-washed for 30 minutes prior to treatment with compounds. The basolateral media is removed and replaced with media containing the compound of interest diluted to its final concentration from DMSO stocks. Treated cells are incubated at 37° C. and 5% CO2 for 24 hours. At the end of the treatment period, the cells on filters are transferred to the Ussing chamber and equilibrated for 30 minutes. The short-circuit current is measured in voltage clamp-mode (Vhold=0 mV), and the entire assay is conducted at a temperature of 36° C.-36.5° C. Once the voltages stabilized, the chambers are clamped, and data is recorded by pulse readings every 5 seconds. Following baseline current stabilization, the following additions can be applied and the changes in current and resistance of the cells can be monitored: • 1. Benzamil to the apical chamber to inhibit ENaC sodium channel. • 2. Forskolin to both chambers to activate ΔF508-CFTR by phosphorylation. • 3. Genistein to both chambers to potentiate ΔF508-CFTR channel opening. • 4. CFTRinh-172 to the apical chamber to inhibit ΔF508-CFTR Cl-conductance.
# The inhibitable current (that current that is blocked by CFTRinh-172) is measured as the specific activity of the ΔF508-CFTR channel, and increases in response to compound in this activity over that observed in vehicle-treated samples are identified as the correction of ΔF508-CFTR function imparted by the compound tested.
row,SMILES,Ussing
1,"C[C@H](O)c1nnc(CCNC(=O)c2cc(-c3ccccc3)on2)o1 [Compound A18, (S)-N-(2-(5-(1-hydroxyethyl)-1,3,4-oxadiazol-2-yl)ethyl)-5-phenylisoxazole-3-carboxamide]",** (** indicates activity ≧200% of VX-809 (1 uM) with compound at 10 uM and VX-809 at 1 uM)
